Where two headings read alike, the source gives them in different places.
What was measured:
[1] = steady-state, trough sample (pre-dose), on average; cited from earlier work
[2] = tested on: MOG-induced EAE in female C57BL/6J mice; type: in vivo, mouse
Procedure: Acute EAE Murine Model. […] The MOG murine model consists of a sensitization period, induced by the single subcutaneous (SC) injection of MOG emulsified in Complete Freund's Adjuvant (CFA) on study days 0 and 6, followed by IP supplemental immunostimulation with Pertussis Toxin (PT) carried out once at the time of EAE induction and once again 48 hours later.
Briefly, the study is performed in female C57BL/6J mice (Harlan Laboratories Israel, Ltd.) as young adults, 8-9 weeks of age at study initiation. animals are acclimatized to laboratory conditions at least 5 days. During acclimation and throughout the entire study duration, animals are housed in groups of 10 mice maximum in polypropylene cages, which are fitted with solid bottoms and filled with wood shavings as bedding material. Animals are provided ad libitum a commercial rodent diet and free access to drinking water, supplied to each cage via polyethylene bottles with stainless steel sipper tubes. Water is monitored periodically. Automatically controlled environmental conditions are set to maintain temperature at 20-24° C. with a relative humidity (RH) of 30-70%, a 12:12 hour light: dark cycle and 15-30 air changes/hr in the study room. Temperature and RH are monitored daily. The light cycle is monitored by the control clock. Weight variation of animals at the time of treatment initiation should not exceed ±20% of the mean weight. At the end of the study, surviving animals are euthanized by CO2 asphyxiation.
Antigen. […] This concentration is appropriate for the selected dose and dose volume of 200 μg MOG in 100 μL PBS.
MOG/CFA Emulsion. Prior to each inoculation carried out on study days 0 and 6, 100 μl of MOG solution (200 μg) is emulsified with 100 μl of CFA suspension (300 μg heat killed Mycobacterium Tuberculosis H37 Ra). […]
Initially, all animals are examined for signs of any neurological responses and symptoms prior to EAE induction (study day 0) and are examined on a daily basis throughout the 35-day observation period. EAE reactions are scored and recorded according to a 0-15 scale Clinical signs Scoring Methods. […]

[3] = tested on: MOG-induced EAE in female C57BL/6J mice; experiment: Histological analysis of spinal cord (H&E) of EAE mice: severity score and white matter damage; type: in vivo, mouse
Excerpt: EXAMPLE. Histological Analysis of mice treated with pirlindole (BVA-201). Briefly, all samples are longitudinal sections of the vertebral column and spinal cord stained with hematoxylin and eosin (H&E). Sample A is the cranial part of the vertebral column and sample B is the caudal part. The modifiers F-focal, MF-multifocal, and D-diffuse are used to describe the distribution of inflammatory cellular infiltration. Diffuse is used when the lesion is continuous (at least on one side) and affects the entire SC. In some cases the lesion affects the entire SC (100%) but its distribution is multifocal because it is not contiguous i.e. there are small unaffected segments on one side, which are affected on the contralateral side. Histology analysis refers to 2 parameters: (a) Severity Score which is referring mainly but not limited to infiltration on inflammatory cells; and (b) White Matter Damage (WMD). Codes: Dist—distribution; GM—gray matter; IC—inflammatory cells; ND—not done; SC—spinal cord; Sev—severity; WM—white matter; WMD—white matter damage; WNL—within normal limits. Severity scores 0—WNL, 1—minimal, 2—mild, 3—moderate, 4—severe. Half grades are also used. Severity refers to the amount of inflammatory infiltration and WMD. If there is a discrepancy in the grade of these 2 changes, then this is noted. The extent of WMD is indicated in percentage referring to the amount of affected spinal cord tissue in the sample. In many cases the damage affected one side (dorsal or ventral) of the SC only. In some cases, when the plane of section is more lateral the WMD affects both sides. The available SC sample is considered 100%. Thus, if in a 5 cm long SC, there are changes in a 0.5 cm long segment, then this was noted as 10% irrespective of whether the damage affected one side or both. Although not reflected in the percentage, the extent of the lesion is taken into consideration in evaluation of the severity. WMD describes a set of changes including vacuolation, gliosis, and presence of myelin debris. […]

Row | Compound | Metabolite concentration as share of the clozapine concentration in plasma [1] [%] | Activity on EAE clinical score compared to the vehicle-only treatment group (A) ([2]; group C, 1.0 mg/kg IP once daily, at the end of the study) | Activity on EAE clinical score compared to the vehicle-only treatment group (A) ([2]; group C, 1.0 mg/kg IP once daily, intermediate time points on days 30, 31, and 32, p<0.05) | Activity on EAE clinical score compared to the vehicle-only treatment group (A) ([2]; group E, 10 mg/kg IP once daily from day 0, p<0.01, starting at day 15 and continuing throughout the study (day 23, p<0.05), FIG. 1) | Demyelination / myelin repair compared to the vehicle-only treatment group ([3]; BVA-201 treatment group, general statement) | Histology mean % of white matter damage (WMD) ([3]; group F, 30 mg/kg IP, FIG. 5) | Histology mean group severity score (inflammatory infiltration) versus vehicle ([3]; groups C (1 mg/kg) and F (30 mg/kg) IP, FIG. 3)
1 | Clc1ccc2c(c1)N=C(N1CCNCC1)c1ccccc1N2 [Norclozapine] | ~70 | – | – | – | – | – | –
2 | Cc1ccc2c(c1)c1c3n2CCNC3CCC1 (stereo not shown) [Pirlindole, 2,3,3a,4,5,6-hexahydro-8-methyl-1H-pyrazino[3,2,1-j,k]carbazole] | – | not statistically significant | statistically significant | statistically significant | one or more of (a) less demyelination, (b) improved myelin repair, and/or (c) remyelination | significant protective effect | No difference
